The values below come from US11998549B2, “Methods of treating a vascular leakage-associated disease or disorder” (UNITY HEALTH TORONTO, priority 2019, dated 2024).

Assay [1] concerns CLP-induced protein exudation into the alveolar space. Briefly: Mouse CLP model, protein leakage into BALF. It is filed as in vivo. Particulars: intravenous infusion of 1 mg/kg. The method, then:
The CLP model is a well established clinically relevant model for human sepsis (Smeding et al., 2012; Amatullah et al., 2016). Male 8-12 week old C57/B16 mice (Jackson lab) were randomized to CLP or sham surgeries. In anesthetised mice, the cecum was exteriorized, ligated, and perforated. Control animals were exposed to sham surgery, in which the cecum was manipulated, but not ligated or punctured. After surgery, animals received daily fluid resuscitation (subcutaneous (s.c.) 50 ml/kg saline), antibiotic (intraperitoneal (i.p.) imipenem 25 mg/kg) and pain management (s.c. buprenorphine 0.2 mg/kg). Experiments were divided into 2 groups: (1) to assess 7-day survival, and (2) to identify a mechanism of action of a G9a inhibitor in vivo. All experimental mice were randomized and investigators were blinded to group assignment.
Assessment of protective effects of UNC0642 on sepsis-induced vascular leakage: lung injury score and loss of alveolar-capillary membrane integrity with increased albumin and IgM exudation into bronchoalveolar lavage fluid (BALF) was assessed at 24 hrs post treatment.

Assay [2] concerns Beas2b human airway epithelial cells. As to the kind of experiment: TNFα-induced ROS production (DCF assay) in beas2b cells. The conditions noted are these: TNFα 10 ng/mL, 24 hr. It is filed as cell-based. How it is done: Beas2b human airway epithelial cells were grown to 70% confluency. Cells were treated with TNFα (10 ng/mL) or an equal volume of nuclease-free water in the presence of 0, 0.25, 2.5, or 25 nM of UNC0642. Cell lysates were collected in 1×PBS after 24 hr and freeze-thawed twice to lyse the cells completely. In vitro ROS was measured using OxiSelect In Vitro ROS/RNS Assay Kit with DCF standard. ROS (nM) was calculated from the standard curve and values were normalized by total amount of protein (as measured by Bradford assay). Values are expressed as mean+/−SEM (average of two experimental replicates).

In assay [3] the test system is cellular junction protein transcript levels. Briefly: Quantitative RT-PCR of cellular junction proteins in zebrafish sepsis model. The assay is classed as in vivo. Particulars: 3 dpf larvae, LPS 27 μg/ml (Salmonella) + 1 μM UNC0642, 24 h. The source says:
Quantitative reverse transcription polymerase chain reaction (RT-PCR) was used to assess relative expression of cytokines (an average of 3 trials, each trial with a pool of 20 larvae/treatment) and cellular junction proteins (an average of 3 trials, each trial with a pool of 20 larvae/treatment), using elongation factor 1 a (EF1a) as the housekeeping gene control. […] UNC0642 reverses LPS induced reduction in the transcript levels of cellular junction proteins, namely occludin a, occludin b and ZO-1. UNC0642 also upregulates cellular junction protein transcript levels of occludin b, claudin 5a, claudin 5b and claudin 2, potentially improving vascular stability.
RNA extraction and cDNA synthesis. Wildtype zebrafish larvae (3 dpf) were exposed to Vehicle, LPS (27 μg/ml; LPS from Salmonella) or LPS+1 μM UNC0642 by static immersion for 24 h. Total RNA was extracted from these larvae (pool of 20 larvae/treatment) using the RNeasy extraction kit (Qiagen™, Mississauga, Ontario, Canada) and treated with DNase. The concentration of total RNA was determined spectrophotometrically at 260/280 nm using a NanoDrop™ spectrophotometer. […]
PCR conditions. […] The primers are not listed, since suitable primers will be readily apparent to the skilled person.

For assay [4], the system named is VE cadherin in HUVEC cells. Briefly: Immunostaining of VE cadherin in HUVEC cells. It is filed as cell-based, human. The conditions noted are these: LPS 1 μg/ml + UNC0642 2.5 nM, 24 hours. The method, then: HUVEC cells were seeded onto Lab-Tek II Chamber slide system at 1×10^6 cells/ml and grown to confluency. At 80-95% confluency they were treated with either the vehicle, LPS (1 μg/ml), LPS (1 μg/ml)+UNC0642 (2.5 nM) or UNC0642 (2.5 nM) for 24 hours. Then the following steps for immunostaining were performed • 1. Fixed the cells in 4% formaldehyde in warm PBS for 20 minutes at room temperature • 2. Aspirated the fixative • 3. Washed 3 times in PBS, 5 minutes each • 4. Blocked in blocking buffer for 2 hours at room temperature • 5. Aspirated the blocking buffer • 6. Added primary antibody VE cadherin (monoclonal VE Cad; cell signalling 2500S) at a dilution of 1:200 and incubated overnight at 4° C. • 7. Washed 3 times in PBS, 10 minutes each • 8. Added secondary antibody (goat anti-rabbit IgG Alexa Fluor 568; 1:1000 and Alexa Fluor 488 phalloidin; 1:1,000) and incubated for 2 hours at room temperature. • 9. Washed the cells 3 times in PBS, 10 minutes each at room temperature and mounted with a cover slip in 4′,6-diamidino-2-phenylindole (DAPI) Vectashield.
Images were taken with a Zeiss™ confocal microscope. […] (FIG. 10)

The next assay relates to HUVEC monolayer. As to the kind of experiment: Trans-endothelial electrical resistance (TEER) across HUVEC monolayer. The assay is classed as cell-based, human. Particulars: LPS 1 μg/ml + UNC0642 2.5 nM, 24 h post treatment. How it is done: To determine the functional significance of G9a inhibition in human cells, solute permeability and electrical resistance across a confluent HUVEC monolayer was assessed. For both experiments, HUVEC were seeded at 1×10^6 cells/ml on Matrigel™ coated 3-μm pore size transwell inserts in 24-well plates from BD Discovery Labware™ (catalog number 354575) and grown to confluency. The cells were then treated with either the vehicle, LPS (1 μg/ml) or LPS (1 μg/ml)+UNC0642 (2.5 nM).
Assessment of trans-endothelial electrical resistance (TEER): At 24 h post treatment, trans endothelial electrical resistance across the HUVEC monolayer was measured using the Endohm-12 (WPI, Florida). UNC0642 improves transendothelial electrical resistance (TEER) which is also an indicator of vessel integrity and stability. (FIG. 11, Panel B)

In the case of `COc1cc2c(NC3CCN(C(C)C)CC3)nc(N3CCC(F)(F)CC3)nc2cc1OCCCN1CCCC1` [UNC0642, 2-(4,4-Difluoropiperidin-1-yl)-6-methoxy-N-[1-(propan-2-yl)piperidin-4-yl]-7-(3-(pyrrolidin-1-yl)propoxy]quinazolin-4-amine], the “Protein exudation into the alveolar space (total alveolar protein in the BALF)” value in assay [1] is given as “reduced protein exudation”. For the same compound, the “TNFα-induced increased ROS production” value in assay [2] is “significantly lowered”. Moreover, in assay [3], the “LPS induced reduction in transcript levels of occludin a, occludin b and ZO-1” value is on record as “reverses”; the “Transcript levels of occludin b, claudin 5a, claudin 5b and claudin 2” value was “upregulates”. Also, the “LPS-caused decrease in level and patterning of VE cadherin” value in assay [4] is “partially rescued”. Besides, in the assay on HUVEC monolayer, the “Transendothelial electrical resistance (TEER)” value was “improves”.
